Values joined by “and” are separate entries in the source; they are usually repeats but may differ in a detail not shown here. Equal entries are not always repeated. Where two headings read alike, the source gives them in different places.
Tests used:
[1] = test system: HepaRG cells; test: Time-dependent PA depletion and PANO formation in cell culture medium of HepaRG cells at 37 °C and 4 °C (LC-MS/MS)
Experimental: (§1) In order to measure time-dependent depletion of PA and PANO content in cell culture medium, cells were seeded at a density of 0.2 × 10^6 cells per well in a 6-well plate and cultivated as described in Section 4.2. After four weeks of cultivation, cells were adapted to serum-free medium and medium substituted with insulin, transferrin, selenium (ITS) serum extender (Capricorn Scientific, Ebsdorfergrund, Germany) 48 h prior to PA incubation for optimal LC-MS/MS measurements. […] Samples were taken after 2 h, 4 h, 8 h and 24 h.
(§2) Briefly, chromatographic separation of PA/PANO analytes was achieved on a 50 × 2.1 mm Kinetex ™ 2.6 μm CoreShell EVO C18 100 Å column protected by a SecurityGuard ™ ULTRA EVO C 18 2.1 mm guard column (both Phenomenex, Aschaffenburg, Germany) at a flow rate of 0.4 mL/min on a Shimadzu high performance liquid chromatography (HPLC) apparatus (LC-20AB, SIL-20AC HT, CTO-20AC, CBM-20A, Duisburg, Germany) coupled to an API4000 triple quadrupole MS (Sciex, Darmstadt, Germany). The following MS parameters were used for measurements in positive electrospray ionisation (ESI+) mode: ionisation voltage 2500 V, nebuliser gas 50 psi, heating gas 50 psi, curtain gas 30 psi, temperature 600 °C, collision gas level 7. The substance specific parameters are summarized in Kaltner et al. 2019 [79].

[2] = test system: HepaRG cells; test: PA and PANO content in cell culture medium of HepaRG cells upon pharmacological transporter inhibition (LC-MS/MS); assay type: in vitro ADME, human
[3] = test system: HepaRG cells; test: as above; assay type: in vitro ADME, human; remark: listed apart in the source
Experimental: (§3) In the case of TEA, cells were pre-incubated 24 h prior to PA treatment. The inhibitors were applied anew at PA incubation.
as §1, §2

[4] = test system: HepaRG cells; test: Cell viability (MTT assay) of HepaRG cells with and without transporter inhibitors; assay type: cell-based, human; details: for viability [%], single replicates: repl. 1-6; for Cell viability (MTT), percent of solvent control, Mean [%]: 24 h, listed as Sc
Experimental: as §3
(§4) To analyze the cytotoxic effects of PAs on HepaRG cells with non-inhibited and inhibited hepatic transporters, the cells were seeded at a density of 9000 cells per well in the inner 60 wells of a 96-well plate and cultivated as described in Section 4.2. After four weeks of cultivation, FBS concentration in the cell culture medium was reduced to 2% for 48 h prior incubation. Thereby, inhibitory effects of peptide growth factors from the FBS on xenobiotic-metabolizing enzymes were minimized. […] The cells were pre-incubated with pharmacological inhibitors as described in Section 4.3. […] Cell viability was analyzed via the MTT test. 10 µl MTT reagent (5 mg/mL MTT dissolved in phosphate-buffered saline, PBS) was added per well and incubated for 1 h at 37 °C. The supernatant was discarded, and the violet formazan crystals dissolved in 130 µL desorption solution (0.7% sodium dodecyl sulfate in propan-2-ol). After shaking for 20 min (under protection from light), absorbance was measured on a TecanM200Pro spectrometer (Tecan Group Ltd., Männedorf, Switzerland) at a wavelength of 570 nm, along with a reference wavelength of 630 nm.

[5] = as above; assay type: cell-based, human; details: human, HepaRG cells
Experimental: as §3, §4

[6] = mean of 6 replicates, no inhibitor, read-out: viability, MW [%]
[7] = repl. 1-6, read-out: viability [%], single replicates

SMILES: C/C=C1/C[C@@H](C)[C@@](C)(O)C(=O)OCC2=CCN3CC[C@@H](OC1=O)[C@@H]23 [Senecionine, senecionine]
- reduction of PA content in the supernatant [1]: highest decline
- uptake and toxicity (grading) [1]: strong
- PANO in medium, Mean [%] ([1]; human): 0%
- PANO in medium, single replicates (repl.) ([1]; human): 0%
- PA in medium, single replicates (repl.) ([2]; no inhibitor, 0h): 100%
- PA in medium, single replicates (repl.) ([2]; plus MK-571, 0h): 100%
- PA content in medium, single replicates ([3]; 8h, no inhibitor, repl. 1-5): 8.726%
- PA content in medium, single replicates ([3]; 8h, plus Ko143, repl. 1-3): 4.478% and 4.105%
- PA in medium, Mean [%] ([3]; no inhibitor, 0h): 100%
- PA in medium, Mean [%] ([3]; no inhibitor, 4h): 25.6172%
- PA in medium, single replicates (repl.) ([3]; no inhibitor, 4h): 20.2703% and 36.4212% and 41.9726% and 18.235% and 11.1867%
- PA in medium, Mean [%] ([3]; no inhibitor, 8h): 8.337%
- PA in medium, single replicates (repl.) ([3]; no inhibitor, 8h): 5.95% and 13.0309% and 15.415% and 3.983% and 3.308%
- PA in medium, Mean [%] ([3]; no inhibitor, 24h): 0.1453%
- PA in medium, single replicates (repl.) ([3]; no inhibitor, 24h): 0% (3×) and 0.3901% and 0.3363%
- PA in medium, Mean [%] ([3]; plus CsA, 0h): 100%
- PA in medium, single replicates (repl.) ([3]; plus CsA, 0h): 100%
- PA in medium, Mean [%] ([3]; plus CsA, 4h): 83.5787%
- PA in medium, single replicates (repl.) ([3]; plus CsA, 4h): 100.41% and 74.0814%
- PA in medium, Mean [%] ([3]; plus CsA, 8h): 79.3329%
- PA in medium, single replicates (repl.) ([3]; plus CsA, 8h): 78.1367% and 71.9298%
- PA in medium, Mean [%] ([3]; plus CsA, 24h): 63.0445%
- PA in medium, single replicates (repl.) ([3]; plus CsA, 24h): 81.6295% and 67.7648% and 39.7392%
- PA in medium, Mean [%] ([3]; plus Ko143, 0h): 100%
- PA in medium, single replicates (repl.) ([3]; plus Ko143, 0h): 100%
- PA in medium, Mean [%] ([3]; plus Ko143, 4h): 27.3505%
- PA in medium, single replicates (repl.) ([3]; plus Ko143, 4h): 21.9905% and 15.6142% and 44.4468%
- PA in medium, Mean [%] ([3]; plus Ko143, 8h): 9.179%
- PA in medium, single replicates (repl.) ([3]; plus Ko143, 8h): 5.449% and 3.069% and 19.0198%
- PA in medium, Mean [%] ([3]; plus Ko143, 24h): 0.2576%
- PA in medium, single replicates (repl.) ([3]; plus Ko143, 24h): 0% (2×) and 0.7727%
- PA in medium, Mean [%] ([3]; plus MK-571, 0h): 100%
- PA in medium, Mean [%] ([3]; plus MK-571, 4h): 87.0627%
- PA in medium, single replicates (repl.) ([3]; plus MK-571, 4h): 81.9366% and 96.8826% and 82.369%
- PA in medium, Mean [%] ([3]; plus MK-571, 8h): 64.688%
- PA in medium, single replicates (repl.) ([3]; plus MK-571, 8h): 76.7573% and 68.0778% and 49.229%
- PA in medium, Mean [%] ([3]; plus MK-571, 24h): 22.3298%
- PA in medium, single replicates (repl.) ([3]; plus MK-571, 24h): 51.6203% and 9.723% and 5.646%
- PA in medium, Mean [%] ([3]; plus Qu, 0h): 100%
- PA in medium, single replicates (repl.) ([3]; plus Qu, 0h): 100%
- PA in medium, single replicates (repl.) ([3]; plus Qu, 4h): 89.6889% and 96.62%
- PA in medium, single replicates (repl.) ([3]; plus Qu, 8h): 89.9877% and 75.5125% and 84.2%
- PA in medium, single replicates (repl.) ([3]; plus Qu, 24h): 67.9609% and 61.3936% and 73.11%
- PA in medium, Mean [%] ([3]; plus TEA, 0h): 100%
- PA in medium, single replicates (repl.) ([3]; plus TEA, 0h): 100%
- PA in medium, Mean [%] ([3]; plus TEA, 4h): 61.4268%
- PA in medium, single replicates (repl.) ([3]; plus TEA, 4h): 53.1634% and 46.1792% and 84.938%
- PA in medium, Mean [%] ([3]; plus TEA, 8h): 43.7039%
- PA in medium, single replicates (repl.) ([3]; plus TEA, 8h): 34.8001% and 27.837%
- PA in medium, Mean [%] ([3]; plus TEA, 24h): 19.1005%
- PA in medium, single replicates (repl.) ([3]; plus TEA, 24h): 7.953% and 7.514% and 41.8346%
- viability [%], single replicates ([4]; 1 µM): 104.702% and 96.5101% and 108.622% and 97.0096% and 97.8347%
- viability [%], single replicates ([4]; 10 µM): 86.1735% and 91.8709% and 86.9963% and 83.2717% and 79.1258%
- viability [%], single replicates ([4]; 50 µM): 59.5192% and 77.2207% and 70.6602% and 63.183% and 55.3454%
- viability [%], single replicates ([4]; 100 µM): 53.5295% and 51.7769% and 80.0886% and 68.6733% and 54.6212% and 49.5185%
- viability [%], single replicates ([4]; 250 µM): 44.9713% and 47.0747% and 66.5507% and 52.719% and 45.8871% and 35.0536%
- cytotoxicity of the applied concentration ([4]; HepaRG, 2.5 µM, Figure S2): not cytotoxic
- Cell viability (MTT), percent of solvent control, Mean [%] ([4]; HepaRG, 250 µM PA + CsA (10 µM, 1 h pre-incubation)): 63.5771%
- Cell viability (MTT), percent of solvent control, Mean [%] ([4]; HepaRG, 250 µM PA + Qu (100 µM, 1 h pre-incubation)): 91.9218%
- Cell viability (MTT), percent of solvent control, Mean [%] ([4]; HepaRG, 250 µM PA + TEA (3 mM, 24 h pre-incubation)): 69.5844%
- Cell viability (MTT), percent of solvent control, Mean [%] ([4]; HepaRG, 250 µM PA only): 46.8929%
- viability at 24 h, 1 µM [5, 6]: 100%
- viability at 24 h, 1 µM [5, 7]: 95.1%
- viability at 24 h, 10 µM [5, 6]: 84.6%
- viability at 24 h, 10 µM [5, 7]: 80%
- viability at 24 h, 50 µM ([5]; 50 µM, mean of 6 replicates, no inhibitor, read-out: viability, MW [%]): 65%
- viability at 24 h, 100 µM ([5]; 100 µM, mean of 6 replicates, no inhibitor, read-out: viability, MW [%]): 59.7%
- viability at 24 h, 250 µM ([5]; 250 µM, mean of 6 replicates, no inhibitor, read-out: viability, MW [%]): 48.7%
- viability at 24 h, 250 µM ([5]; HepaRG, 250 µM PA only, 24 h, read-out: Cell viability (MTT), percent of solvent control, Mean [%]): 46%
- viability at 24 h, 250 µM ([5]; with 5 µM Ko143, HepaRG, 250 µM PA + Ko143 (5 µM, 1 h pre-incubation), 24 h, read-out: Cell viability (MTT), percent of solvent control, Mean [%]): 46.5%
- viability at 24 h, 250 µM ([5]; with 50 µM MK-571, HepaRG, 250 µM PA + MK571 (50 µM, 1 h pre-incubation), 24 h, read-out: Cell viability (MTT), percent of solvent control, Mean [%]): 59.1%
- viability at 24 h, 250 µM ([5]; with CsA 10 µM, HepaRG, 250 µM PA + CsA (10 µM, 1 h pre-incubation), 24 h, read-out: Cell viability (MTT), percent of solvent control, Mean [%]): 63%
- viability at 24 h, 250 µM ([5]; with Qu 100 µM, HepaRG, 250 µM PA + Qu (100 µM, 1 h pre-incubation), 24 h, read-out: Cell viability (MTT), percent of solvent control, Mean [%]): 90%
- viability at 24 h, 250 µM ([5]; with TEA 3 mM, HepaRG, 250 µM PA + TEA (3 mM, 24 h pre-incubation), 24 h, read-out: Cell viability (MTT), percent of solvent control, Mean [%]): 69%

From publication PMC8067754, “Active Transport of Hepatotoxic Pyrrolizidine Alkaloids in HepaRG Cells” (International Journal of Molecular Sciences, 2021)
